Key:
C-Raf = molecular target: T1, C-Raf (Homo sapiens, UniProt P04049); test: Biochemical inhibition, standard selectivity panel (Proteros); parameters: dose or concentration left out as unconfirmed
T1 construct: purchased Proteros biostructures GmbH (selectivity panel service)
Experimental: (§1) For example, selected compound of the present invention were tested in a standard selectivity panel including c-Raf, p38, and 22 other kinases (Proteros biostructures GmbH, Martinsried/Munich, Germany), under conditions of non-disclosure, non-dissemination and non-use.
(§2) In brief, selected compounds of the present invention were tested […] in triplicates against c-Raf, p38 as well as against Ab1, Akt1, Aur A, c-Kit, c-Raf, Cdk1/CycB, Chk1, FGFR3, Flt3, Fyn, IGF1-R, INSR, Lyn, MAPK-ERK1, PAK-4, PKCalpha, Plk1, Ret, ROCK2, RSK 1, c-Src, TIE2, and VEGF-R2.

p38 = molecular target: T2, p38 (Homo sapiens, UniProt Q16539); test: as above; parameters: dose or concentration left out as unconfirmed
T2 construct: purchased Proteros biostructures GmbH (selectivity panel service)
Experimental: as §1, §2

[1] = test system: HT-29 [B-Raf V600E mutant]; test: Anti-proliferative activity, SRB assay, 72 hours; assay type: cell-based; settings: Homo sapiens, read-out: CELLULAR IC50 [μM] HT-29 [B-Raf V600E mutant]
Experimental: We observed the surprising finding that compounds of the invention were useful in inhibiting proliferation of HT-29 tumor cells (see Table 3).
(§3) Cells were exposed to the test compounds at various concentrations appropriate to determine an IC50, for 72 hours, and cell proliferation was measured using the SRB assay according to Shekan et al (J Natl Cancer Inst (1990) 82, 1107-112) in order to estimate the IC50 values shown in Table 3.
(§4) Briefly, cells were plated in 96 well dishes 24 hours prior to compound addition at the densities specified in Table 11.1.
(§5) The assay was terminated with the addition of ice cold 10% TCA after growth medium has been removed and the plates were incubated over night at 4° C. The plates were then washed 5 times with water and 100 μl of a Sulforhodamine B solution ([…]) was added to each well. The plates were then incubated for 10 minutes at room temperature before removal of unbound dye by washing with 1% acetic acid. The bound dye was solubilized with 10 mM Trizma base and the absorbance read at OD520.
(§6) Inhibitory activity of the compounds was calculated as % inhibition of cell proliferation compared to cells treated with the solvent (DMSO).

A-431 [B-Raf wildtype] = test: Anti-proliferative activity, SRB assay, 72 hours; assay type: cell-based; settings: Homo sapiens, read-out: CELLULAR IC50 [μM] A-431 [B-Raf wildtype]
Experimental: as §3, §4, §5, §6

T2 sequence (Q16539 whole entry): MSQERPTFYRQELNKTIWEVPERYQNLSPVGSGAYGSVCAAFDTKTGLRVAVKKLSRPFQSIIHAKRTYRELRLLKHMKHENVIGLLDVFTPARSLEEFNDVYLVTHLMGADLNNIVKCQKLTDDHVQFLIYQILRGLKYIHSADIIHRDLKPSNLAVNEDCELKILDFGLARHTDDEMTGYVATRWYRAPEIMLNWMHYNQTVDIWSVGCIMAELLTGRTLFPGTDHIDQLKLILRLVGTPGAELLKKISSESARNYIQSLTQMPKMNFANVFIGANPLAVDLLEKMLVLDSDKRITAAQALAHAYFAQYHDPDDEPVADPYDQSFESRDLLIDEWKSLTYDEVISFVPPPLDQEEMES
T1 sequence (P04049 whole entry): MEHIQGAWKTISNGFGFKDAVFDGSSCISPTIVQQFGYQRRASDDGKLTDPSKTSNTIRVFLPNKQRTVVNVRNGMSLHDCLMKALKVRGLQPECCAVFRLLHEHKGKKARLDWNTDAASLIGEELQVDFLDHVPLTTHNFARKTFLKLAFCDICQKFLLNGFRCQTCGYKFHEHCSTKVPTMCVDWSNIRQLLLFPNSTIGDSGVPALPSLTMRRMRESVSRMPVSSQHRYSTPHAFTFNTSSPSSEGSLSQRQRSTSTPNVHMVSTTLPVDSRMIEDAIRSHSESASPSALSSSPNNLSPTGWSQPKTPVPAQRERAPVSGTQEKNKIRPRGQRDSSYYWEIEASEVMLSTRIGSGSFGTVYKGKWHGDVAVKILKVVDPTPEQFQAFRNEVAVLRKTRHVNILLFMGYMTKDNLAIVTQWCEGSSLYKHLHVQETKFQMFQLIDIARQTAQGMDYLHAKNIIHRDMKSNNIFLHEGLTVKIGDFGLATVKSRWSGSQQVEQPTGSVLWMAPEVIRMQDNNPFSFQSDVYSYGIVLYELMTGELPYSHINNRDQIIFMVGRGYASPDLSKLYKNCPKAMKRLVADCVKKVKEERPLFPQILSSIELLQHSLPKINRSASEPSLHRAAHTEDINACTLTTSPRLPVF

Row | SMILES | inhibition (C-Raf) [%] | inhibition (p38) [%] | IC50 [1] [µM] | IC50 (A-431 [B-Raf wildtype]) [µM]
1 | COn1c(=O)c(-c2cc(NC(=O)c3ccc(Cl)c(Cl)c3)ccc2Cl)cc2cnc(NCCN(C)C)nc21 [Compound 10, 3,4-Dichloro-N-{4-chloro-3-[2-(2-dimethylamino-ethylamino)-8-methoxy-7-oxo-7,8-dihydro-pyrido[2,3-d]pyrimidin-6-yl]-phenyl}-benzamide] | > 70 | > 70 | < 5 | > 10
2 | COn1c(=O)c(-c2cc(NC(=O)Cc3ccc(Cl)c(C(F)(F)F)c3)ccc2Cl)cc2cnc(NCCN(C)C)nc21 [Compound 16, N-{4-Chloro-3-[2-(2-dimethylamino-ethylamino)-8-methoxy-7-oxo-7,8-dihydro-pyrido[2,3-d]pyrimidin-6-yl]-phenyl)-2-(4-chloro-3-trifluoromethyl-phenyl)-acetamide] | > 70 | > 70 | < 5 | > 10
3 | COn1c(=O)c(-c2cc(NC(=O)c3ccc(F)c(C(F)(F)F)c3)ccc2Cl)cc2cnc(NCCN(C)C)nc21 [Compound 17, N-{4-Chloro-3-[2-(2-dimethylamino-ethylamino)-8-methoxy-7-oxo-7,8-dihydro-pyrido[2,3-d]pyrimidin-6-yl]-phenyl)-4-fluoro-3-trifluoromethyl-benzamide] | > 70 | > 70 | < 5 | > 10
4 | COn1c(=O)c(-c2cc(NC(=O)c3cccc(Cl)c3)ccc2Cl)cc2cnc(NCCN(C)C)nc21 [Compound 18, 3-Chloro-N-{4-chloro-3-[2-(2-dimethylamino-ethylamino)-8-methoxy-7-oxo-7,8-dihydro-pyrido[2,3-d]pyrimidin-6-yl]-phenyl}-benzamide] | > 70 | > 70 | < 10 | > 10
5 | COn1c(=O)c(-c2cc(NC(=O)c3cc(C(F)(F)F)ccc3F)ccc2Cl)cc2cnc(NCCN(C)C)nc21 [Compound 23, N-{4-Chloro-3-[2-(2-dimethylamino-ethylamino)-8-methoxy-7-oxo-7,8-dihydro-pyrido[2,3-d]pyrimidin-6-yl]-phenyl]-2-fl uoro-5-trifluoromethyl-benzamide] | > 70 | > 70 | < 5 | > 10
6 | COn1c(=O)c(-c2cc(NC(=O)c3cccc(C(F)(F)F)c3)ccc2Cl)cc2cnc(NCCN(C)C)nc21 [Compound 24, N-{4-Chloro-3-[2-(2-dimethylamino-ethylamino)-8-methoxy-7-oxo-7,8-dihydro-pyrido[2,3-d]pynmidin-6-yl]-phenyl}-3-trifluoromethyl-benzamide] | > 70 | > 70 | < 5 | > 10
7 | COn1c(=O)c(-c2cc(NC(=O)c3ccnc(N4CCOCC4)c3)ccc2Cl)cc2cnc(NCCN(C)C)nc21 [Compound 26, N-{4-Chloro-3-[2-(2-dimethylamino-ethylamino)-8-methoxy-7-oxo-7,8-dihydro-pyrido[2,3-d]pyrimidin-6-yl]-phenyl)-2-morpholin-4-yl-isonicotinamide] | > 70 | > 70 | < 10 | > 10
8 | COn1c(=O)c(-c2cc(NC(=O)c3ccc(Oc4ccccc4)cc3)ccc2Cl)cc2cnc(NCCN(C)C)nc21 [Compound 27, N-{4-Chloro-3-[2-(2-dimethylamino-ethylamino)-8-methoxy-7-oxo-7,8-dihydro-pyrido[2,3-d]pyrimidin-6-yl]-phenyl}-4-phenoxy-benzamide] | > 70 | > 70 | < 5 | < 10
9 | COn1c(=O)c(-c2cc(NC(=O)c3cc(F)cc(C(F)(F)F)c3)ccc2Cl)cc2cnc(NCCN(C)C)nc21 [Compound 28] | > 70 | > 70 | < 5 | > 10
10 | COn1c(=O)c(-c2cc(NC(=O)c3ccc(Cl)c(OC(F)(F)F)c3)ccc2Cl)cc2cnc(NCCN(C)C)nc21 [Compound 30, 4-Chloro-N-(4-chloro-3-[2-(2-dimethylamino-ethylamino)-8-methoxy-7-oxo-7,8-dihydro-pyrido[2,3-d]pyrimidin-6-yl]-phenyl}-3-trifluoromethoxy-benzamide] | > 70 | > 70 | < 5 | > 10
11 | COn1c(=O)c(-c2cc(NC(=O)c3cc(C(C)(C)C)nn3-c3ccccc3)ccc2Cl)cc2cnc(NCCN(C)C)nc21 [Compound 31, 5-tert-Butyl-2-phenyl-2H-pyrazole-3-carboxylic acid {4-chloro-3-[2-(2-dimethylamino-ethylamino)-8-methoxy-7-oxo-7,8-dihydro-pyrido[2,3-d]pyrimidin-6-yl]-phenyl}-amide] | ~70 | > 70 | < 5 | < 10
12 | COn1c(=O)c(-c2cc(NC(=O)c3ccc(OCc4cccc(F)c4)c(Cl)c3)ccc2Cl)cc2cnc(NCCN(C)C)nc21 [Compound 32, 3-Chloro-N-{4-chloro-3-[2-(2-dimethylamino-ethylamino)-8-methoxy-7-oxo-7,8-dihydro-pyrido[2,3-d]pyrimidin-6-yl]-phenyl}-4-(3-fluoro-benzyloxy)-benzamide] | > 70 | > 70 | < 5 | < 10
13 | COn1c(=O)c(-c2cc(NC(=O)c3ccc(C(C)(C)C)cc3)ccc2Cl)cc2cnc(NCCN(C)C)nc21 [Compound 37, 4-tert-Butyl-N-{4-chloro-3-[2-(2-dimethylamino-ethylamino)-8-methoxy-7-oxo-7,8-dihydro-pyrido[2,3-d]pyrimidin-6-yl]-phenyl)-benzamide] | > 70 | > 70 | < 5 | < 10
14 | COn1c(=O)c(-c2cc(NC(=O)Nc3ccc(C(F)(F)F)cc3)ccc2Cl)cc2cnc(NCCN(C)C)nc21 [Compound 41, 1-{4-Chloro-3-[2-(2-dimethylamino-ethylamino)-8-methoxy-7-oxo-7,8-dihydro-pyrido[2,3-d]pyrimidin-6-yl]-phenyl}-3-(4-trifluoromethyl-phenyl)-urea] | > 70 | > 70 | < 5 | < 10
15 | COn1c(=O)c(-c2cc(NC(=O)Nc3ccc(F)c(C(F)(F)F)c3)ccc2Cl)cc2cnc(NCCN(C)C)nc21 [Compound 42, 1-{4-Chloro-3-[2-(2-dimethylamino-ethylamino)-8-methoxy-7-oxo-7,8-dihydro-pyrido[2,3-d]pyrimidin-6-yl]-phenyl}-3-(4-fluoro-3-trifluoromethyl-phenyl)-urea] | > 70 | > 70 | < 5 | < 10
16 | COn1c(=O)c(-c2cc(NC(=O)Nc3cccc(Cl)c3)ccc2Cl)cc2cnc(NCCN(C)C)nc21 [Compound 43, 1-{4-Chloro-3-[2-(2-dimethylamino-ethylamino)-8-methoxy-7-oxo-7,8-dihydro-pyrido[2,3-d]pyrimidin-6-yl]-phenyl}-3-(3-chloro-phenyl)-urea] | > 70 | > 70 | < 5 | > 10
17 | COn1c(=O)c(-c2cc(NC(=O)Nc3ccc(C(C)(C)C)cc3)ccc2Cl)cc2cnc(NCCN(C)C)nc21 [Compound 44, 1-(4-tert-Butyl-phenyl)-3-{4-chloro-3-[2-(2-dimethylamino-ethylamino)-8-methoxy-7-oxo-7,8-dihydro-pyrido[2,3-d]pyrimidin-6-yl]-phenyl}-urea] | > 70 | > 70 | < 5 | < 5
18 | COn1c(=O)c(-c2cc(NC(=O)Nc3ccc(C)c(C(F)(F)F)c3)ccc2Cl)cc2cnc(NCCN(C)C)nc21 [Compound 47, 1-{4-Chloro-3-[2-(2-dimethylamino-ethylamino)-8-methoxy-7-oxo-7,8-dihydro-pyrido[2,3-d]pyrimidin-6-yl]-phenyl}-3-(4-methyl-3-trifluoromethyl-phenyl)-urea] | > 70 | > 70 | < 5 | > 5
19 | COn1c(=O)c(-c2cc(NC(=O)Nc3cc(C(F)(F)F)cc(C(F)(F)F)c3)ccc2Cl)cc2cnc(NCCN(C)C)nc21 [Compound 50, 1-(3,5-Bis-trifluoromethyl-phenyl)-3-{4-chloro-3-[2-(2-dimethylamino-ethylamino)-8-methoxy-7-oxo-7,8-dihydro-pyrido[2,3-d]pyrimidin-6-yl]-phenyl}-urea] | > 70 | > 70 | < 5 | < 10

— patent US8232283B2, “Raf inhibitors” (Forma Therapeutics, Inc., priority 2008, dated 2012)
